We go through one molecule from patent US20230136075A1, “TREATMENT FOR SEPSIS-INDUCED ORGAN DYSFUNCTION” (The Florey Institute of Neuroscience and Mental Health, priority 2020, published 2023).

In the data set the test system is ovine sepsis induced by intravenous infusion of live E. coli. The source says:
Using this model, the inventors have investigated the effect of mega dose intravenous vitamin C therapy on various parameters indicative of the progression of sepsis in sheep (Merino ewes, 35-45 kg; 1.5-2.0 years old). Sheep were divided into two groups, a vitamin C (sodium ascorbate) therapy group and a vehicle group as a control. Experimental protocols were approved by the Animal Ethics Committee of the Florey Institute of Neuroscience and Mental Health under guidelines of the National Health and Medical Research Council of Australia.
Preparatory surgical procedures were carried out as described in Lankadeva et al. (2018b). Briefly, two preparatory surgical procedures were performed under general anaesthesia. First, a carotid artery was exteriorised into a skin fold to form a carotid arterial loop to facilitate cannulation for measurement of arterial pressure and heart rate, and for blood sampling. During the same surgical procedure, a flow probe was placed around the pulmonary artery to measure cardiac output. Animals were allowed 3-4 weeks of recovery. Second, a flow probe was implanted around a renal artery to measure renal blood flow, a renal vein was cannulated for blood sampling and fibre optic probes were inserted into the renal cortex, renal medulla (within kidneys) and parietal cortex (brain) to measure tissue perfusion, oxygen tension and temperature.
During the second surgical procedure cannulae were implanted in the carotid artery for arterial pressure measurement and blood sampling and the jugular vein for infusion of fluids, vasopressors, Escherichia coli, sodium ascorbate and blood sampling, and a Foley catheter was inserted into the bladder to collect urine and monitor hourly urine output.
Following three days of recovery from the second surgical procedure, the experimental protocol (see FIG. 1) was initiated in conscious sheep, to avoid the confounding effects of general anaesthesia. Animals daily food and water intake and urine output was measured on a 24-hour basis during the course of the 5-day protocol.
First, a 24-hour baseline period was commenced, which included measurement of systemic haemodynamics, renal and brain perfusion and oxygenation, arterial, central venous and renal venous blood gases and lactate, and urine output. Arterial blood and urine samples were collected at set times during the experimental period.
After establishment of the 24-hour baseline period, gram-negative sepsis was induced by intravenous infusion of live E. coli (isolated from a patient with sepsis at Austin Health) as described in Lankadeva et al. (2018b), administered as a loading (bolus) infusion of 2.8×10^9 colony-forming units (CFU) over 30-minutes followed by a continuous infusion of 1.26×10^9 CFU/h for 30.5 hours. No prophylactic antibiotics, sedative or analgesic agents were administered during this protocol. The description in the following paragraphs is with reference to the protocol as shown schematically in FIG. 1.
At 23 hours of sepsis, when sheep had fulfilled the clinical criteria for sepsis (i.e. established hypotension, tachycardia, fever, lung injury, tachypnoea, hyperlactatemia and stage 1-2 acute kidney injury) animals were resuscitated with 30 mL/kg balanced crystalloid sodium lactate (Hartmann's solution infused at approximately 2500 ml/hr) for 30 mins, from 23-23.5 hours of sepsis.
A blocked randomization design was used to allocate sheep to treatment with sodium ascorbate or vehicle.

Where [1] appears, read: NaHCO3 infusion, two septic sheep.
[2] abbreviates: during the infusion of NaHCO3, two septic sheep.

In the case of `O=C([O-])O.[Na+]` [NaHCO3, sodium bicarbonate], under setting [1], the MAP result is “decreased”, the RBF entry was “not reduced”, the “arterial PO2” value is reported as “no improvement” and the “blood pH” value is reported as “large increase”. For the same molecule, under setting [1], the blood potassium entry is recorded as “hypokalemia”, the blood sodium entry was “hypernatremia”, the creatinine clearance entry was “no reduction in plasma creatinine or increase in creatinine clearance was observed” and the heart rate result is recorded as “not reduced”. For the same molecule, under setting [1], the norepinephrine dose required result is “increasing doses of norepinephrine were required”, the plasma creatinine result is recorded as “no reduction”, the “renal medullary PO2” value was “no improvement” and the renal medullary perfusion result was “no improvement”. Also, the urine flow entry under setting [1] is given as “urine flow increased”. Also, under setting [2], the body temperature result was “large increases” and the shivering entry is recorded as “intermittent shivering”. Further, the “reproduction of the effects of sodium ascorbate” value (hypertonic NaHCO3, equal sodium load, 8.4 g/kg over 30 minutes then 8.4 g/kg/hr for 6.5 hours, two septic sheep, data not shown) is reported as “did not reproduce the effects of sodium ascorbate”.
